Test results taken from patent US10238633B2, “Methods for treating pulmonary emphysema using substituted 2-Aza-bicyclo[2.2.1]heptane-3-carboxylic acid (benzyl-cyano-methyl)-amides inhibitors of Cathepsin C” (Boehringer Ingelheim International GmbH, priority 2013, dated 2019).

Test system: Neutrophil elastase activity in U937 cells
Assay: Determination of neutrophil elastase activity in U937 cytosolic lysate preparation after incubation with test compound
Format: cell-based
Settings: Homo sapiens, U-937, read-out: Reduction of NE-activity in U937 cells IC50
Description: Determination of Neutrophil Elastase Activity in U937 Cytosolic Lysate Preparation after Incubation with Test Compound
Optiplate 384F were purchased from PerkinElmer (Prod. No. #6007270). 24 well Nunclon cell culture plates (No. 142475) and 96 well plates (No. 267245) were from Nunc. Dimethylsulfoxid (DMSO) was from Sigma (Prod. No. D8418). Nonidet-P40 (NP40) was from USBiological (Prod. No. N3500)
Substrate, specific for Neutrophil elastase, was from Bachem (MeOSuc-Ala-Ala-Pro-Val-AMC; Prod. No. 1-1270).
Human neutrophil elastase was from Calbiochem (Prod. No. 324681)
Tris-buffer (100 mM Tris; 1M NaCL; pH 7.5)
Tris-buffer+HSA 0.1%; Human Serum Albumin from Calbiochem (Cat#. 126658)
Serine-protease buffer (20 mM Tris; 100 mM NaCL; pH 7.5)+0.1% HSA
Serine protease lysis buffer: 20 mM Tris-HCL; 100 mM NaCl pH 7.5; +0.2% Nonidet-P40;
PBS: phosphate buffered saline, without Ca and Mg, from Gibco
U937 from ECACC (Cat. No. 85011440) cultured in suspension at 37° C. and 5% CO2.
Cell density: 0.2-1 Mio. Cells/ml.
Medium: RPMI1640 GlutaMAX (No. 61870) with 10% FCS from Gibco
Cell Seeding and Treatment:
Compounds in 100% DMSO were diluted in Medium (—FCS) with 10% DMSO and further diluted according to the experiment planned.
20 μl of the compound solution was transferred in the respective wells of the 24 well plate and diluted with 2 ml cell suspension/well containing […] (final concentration of DMSO=0.1%). Compound dilution factor=100
Compounds (up to 7 concentrations) were tested in triplicates with 3 wells for the DMSO 0.1% control, incubated for 48 hours without medium change at 37° C., 5% CO2 and 95% relative humidity.
Cell Harvesting and Cell Lysate:
Transfer the cell suspension in 2.2 ml Eppendorf cups. Separate cells from medium by centrifugation (400×g; 5 min; RT); discard the supernatant. Resuspend in 1 ml PBS; centrifugation (400×g; 5 min; RT); wash cells twice with PBS. Add 100 μl Serin lysis buffer (ice cold) to the cell pellet; resuspend the pellet and store on ice for 15 minutes. Remove debris by centrifugation at 15000×g for 10 min at 4° C. Transfer 80-100 μl lysate supernatant in 96 well plate and store immediately at −80° C.
Neutrophil Elastase Activity Assay:
Frozen lysates were thawn at 37° C. for 10 minutes and stored on ice. Protein content was determined with Bradford protein assay. Lysates were diluted to 0.2-0.5 mg/ml protein in serine protease buffer+HSA.
Standard: NE (100 μg/ml stock solution in Tris-buffer; stored at −80° C.) was diluted in Tris-buffer+HSA to 750 ng/ml, and further serially diluted 1:2 for the standard curve.
Buffer, blank, standard and lysate samples were transferred into 384 well plate
Blank: 5 μl Tris-buffer+10 μl Tris-buffer+HSA+5 μl Substrate
Standard: 5 μl Tris-buffer+10 μl NE (diff. conc.)+5 μl Substrate
Lysate: 5 μl Tris-buffer+10 μl Lysat+[…] Substrate
The increase in fluorescence (Ex360 nm/Em 460 nm) is determined over 30 minutes with a Molecular Device Spectramax M5 Fluorescence Reader. Kinetic Reduction (Vmax units/sec); 4 vmax points. The amount of neutrophil elastase (ng/ml) is calculated using the standard curve and the Spectramax software. The result is interpolated to ng/mg lysate protein using excel formula functions. […] IC50 is calculated using Graphpad Prism; nonlinear fitting (log(inhibitor) vs. response—Variable slope).

| Compound | IC50 |
| --- | --- |
| CN(C)C1CCCN(c2ccc(C[C@@H](C#N)NC(=O)[C@H]3N[C@@H]4CC[C@H]3C4)c(F)c2)C1 (stereo partly drawn) [Example 344, (1S,2S,4R)—N-[(1S)-1-cyano-2-[4-[3-(dimethylamino)-1-piperidyl]-2-fluoro-phenyl]ethyl]-3-azabicyclo[2.2.1]heptane-2-carboxamide] | 4.1 nM |
| N#C[C@H](Cc1ccc(-c2csc(C(=O)N3CCn4nccc4C3)c2)cc1F)NC(=O)[C@H]1N[C@@H]2CC[C@H]1C2 [Example 226] | 1.8 nM |
| N#CC(Cc1cc2c(=O)[nH]c3ccc(F)cc3c2cc1F)NC(=O)[C@H]1N[C@@H]2CC[C@H]1C2 (some centres unmarked) [Example 295] | 8.6 nM |
| Cn1c(=O)c2cc(C[C@@H](C#N)NC(=O)[C@H]3N[C@@H]4CC[C@H]3C4)c(F)cc2c2ccccc21 [Example 326] | 1.9 nM |
| CN1CCN(C(=O)c2cc(-c3ccc(C[C@@H](C#N)NC(=O)[C@H]4N[C@@H]5CC[C@H]4C5)c(F)c3)cs2)CC1 [Example 225] | 2.8 nM |
| N#C[C@H](Cc1cc2c(=O)[nH]c3c(F)c(F)ccc3c2cc1F)NC(=O)[C@H]1N[C@@H]2CC[C@H]1C2 [Example 324] | 1.3 nM |
| CN1C2CCC1CN(c1ccc(C[C@@H](C#N)NC(=O)[C@H]3N[C@@H]4CC[C@H]3C4)c(F)c1)C2 [Example 333] | 4.7 nM |
| N#C[C@H](Cc1ccc(N2CCN(CC3CCCO3)CC2)cc1F)NC(=O)[C@H]1N[C@@H]2CC[C@H]1C2 (some centres unmarked) [Example 154] | 4.6 nM |
| CS(=O)(=O)c1ccc(-c2ccc(C[C@@H](C#N)NC(=O)[C@H]3N[C@@H]4CC[C@H]3C4)c(F)c2)cc1 [Example 16] | 14.5 nM |
| N#CC(Cc1cc2c(=O)[nH]c3cc(F)ccc3c2cc1F)NC(=O)[C@H]1N[C@@H]2CC[C@H]1C2 (some centres unmarked) [Example 293] | 4.6 nM |
| N#C[C@H](Cc1ccc(C2=CCN(C3CCOC3)CC2)cc1F)NC(=O)[C@H]1N[C@@H]2CC[C@H]1C2 (some centres unmarked) [Example 332] | 5.8 nM |
| N#C[C@H](Cc1ccc(C2=CC3COCCN3CC2)cc1F)NC(=O)[C@H]1N[C@@H]2CC[C@H]1C2 (some centres unmarked) [Example 282] | 3.4 nM |
| CN1CCN(C(=O)c2ccc(-c3ccc(C[C@@H](C#N)NC(=O)[C@H]4N[C@@H]5CC[C@H]4C5)c(F)c3)o2)CC1 [Example 289] | 3.9 nM |
| CC(C)N1CCCN(c2ccc(C[C@@H](C#N)NC(=O)[C@H]3N[C@@H]4CC[C@H]3C4)c(F)c2)CC1 [Example 267] | 2.7 nM |
| N#CC(Cc1ccc2c(c1)c(=O)[nH]c1c(F)c(F)ccc12)NC(=O)[C@H]1N[C@@H]2CC[C@H]1C2 (some centres unmarked) [Example 300] | 8.9 nM |
| CN1C(=O)Cc2ccc(-c3ccc(C[C@@H](C#N)NC(=O)[C@H]4N[C@@H]5CC[C@H]4C5)c(F)c3)cc21 [Example 2, (1S,2S,4R)—N-[(1S)-1-cyano-2-[2-fluoro-4-(1-methyl-2-oxo-indolin-6-yl)phenyl]ethyl]-3-azabicyclo[2.2.1]heptane-2-carboxamide] | 6.2 nM |
| CC1CN(C)CCN1c1ccc(C[C@@H](C#N)NC(=O)[C@H]2N[C@@H]3CC[C@H]2C3)c(F)c1 (some centres unmarked) [Example 192] | 4.1 nM |
| CN1CCCN(S(=O)(=O)c2ccc(-c3ccc(C[C@@H](C#N)NC(=O)[C@H]4N[C@@H]5CC[C@H]4C5)c(F)c3)cc2)CC1 [Example 340] | 0.8 nM |
| N#C[C@H](Cc1ccc(N2CCN3CCOC[C@@H]3C2)cc1F)NC(=O)[C@H]1N[C@@H]2CC[C@H]1C2 [Example 249] | 16.5 nM |
| CN(C)CCN1C(=O)Cc2ccc(-c3ccc(C[C@@H](C#N)NC(=O)[C@H]4N[C@@H]5CC[C@H]4C5)c(F)c3)cc21 [Example 278] | 1 nM |
| N#Cc1cc(F)c2[nH]c(=O)c3cc(C[C@@H](C#N)NC(=O)[C@H]4N[C@@H]5CC[C@H]4C5)c(F)cc3c2c1 [Example 325] | 4.7 nM |
| N#C[C@H](Cc1ccc(N2CCN(C3CCOC3)CC2)cc1F)NC(=O)[C@H]1N[C@@H]2CC[C@H]1C2 (some centres unmarked) [Example 331] | 6 nM |

| Compound | IC50 |
| --- | --- |
| CN1CCC2(C=C(c3ccc(C[C@@H](C#N)NC(=O)[C@H]4N[C@@H]5CC[C@H]4C5)c(F)c3)C2)CC1 [Example 359] | 2.9 nM |
| Cn1cc(-c2ccc(C[C@@H](C#N)NC(=O)[C@H]3N[C@@H]4CC[C@H]3C4)c(F)c2)ccc1=O [Example 254] | 30.5 nM |
| CNc1nc2cc(-c3ccc(C[C@@H](C#N)NC(=O)[C@H]4N[C@@H]5CC[C@H]4C5)c(F)c3)ccc2n1C [Example 253] | 5.5 nM |
| CN(C)CCCN1C(=O)Cc2ccc(-c3ccc(C[C@@H](C#N)NC(=O)[C@H]4N[C@@H]5CC[C@H]4C5)c(F)c3)cc21 [Example 277] | 3.6 nM |
| CN1CCC(N2C(=O)Cc3ccc(-c4ccc(C[C@@H](C#N)NC(=O)[C@H]5N[C@@H]6CC[C@H]5C6)c(F)c4)cc32)CC1 [Example 346] | 6.8 nM |
| N#CC(Cc1ccc(-c2ccc3c(c2)COC3=O)cc1F)NC(=O)[C@H]1N[C@@H]2CC[C@H]1C2 (some centres unmarked) [Example 11] | 8.7 nM |
| COCCN1C(C)CN(c2ccc(C[C@@H](C#N)NC(=O)[C@H]3N[C@@H]4CC[C@H]3C4)c(F)c2)CC1C (some centres unmarked) [Example 191] | 3.3 nM |
| CN(C)CCN1C(=O)Cc2cc(-c3ccc(C[C@@H](C#N)NC(=O)[C@H]4N[C@@H]5CC[C@H]4C5)c(F)c3)ccc21 [Example 279] | 1.9 nM |
| CN1CCc2cc(-c3ccc(C[C@@H](C#N)NC(=O)[C@H]4N[C@@H]5CC[C@H]4C5)c(F)c3)ccc2C1=O [Example 42] | 8.3 nM |
| CCN1CCN(c2ccc(C[C@@H](C#N)NC(=O)[C@H]3N[C@@H]4CC[C@H]3C4)c(F)c2)CC1 [Example 272] | 2.4 nM |
| CC1(C)OC(=O)c2ccc(-c3ccc(C[C@@H](C#N)NC(=O)[C@H]4N[C@@H]5CC[C@H]4C5)c(F)c3)cc21 [Example 156] | 2.3 nM |
| CN1CCN(S(=O)(=O)c2ccc(-c3ccc(C[C@@H](C#N)NC(=O)[C@H]4N[C@@H]5CC[C@H]4C5)c(F)c3)cc2)CC1 [Example 155] | 0.5 nM |
| N#C[C@H](Cc1ccc(-c2ccc(=O)n(CC(F)F)c2)cc1F)NC(=O)[C@H]1N[C@@H]2CC[C@H]1C2 [Example 343] | 16.9 nM |
| N#C[C@H](Cc1cc2c(=O)[nH]c3cc(F)ccc3c2cc1F)NC(=O)[C@H]1N[C@@H]2CC[C@H]1C2 [Example 323] | 1.4 nM |
| N#C[C@H](Cc1ccc(N2CCN3CCC[C@H]3C2)cc1F)NC(=O)[C@H]1N[C@@H]2CC[C@H]1C2 [Example 270] | 1.4 nM |
| CN1CCN(c2ccc(C[C@@H](C#N)NC(=O)[C@H]3N[C@@H]4CC[C@H]3C4)c(F)c2)CC1 [Example 6, (1S,2S,4R)—N-[(1S)-1-cyano-2-[2-fluoro-4-(4-methylpiperazin-1-yl)phenyl]ethyl]-3-azabicyclo[2.2.1]heptane-2-carboxamide] | 2.4 nM |
| N#C[C@H](Cc1ccc(N2CCN3CCOC[C@H]3C2)cc1F)NC(=O)[C@H]1N[C@@H]2CC[C@H]1C2 [Example 250] | 11.5 nM |
| N#C[C@H](Cc1ccc(-c2ccc3c(c2)NC(=O)C3)cc1F)NC(=O)[C@H]1N[C@@H]2CC[C@H]1C2 [Example 29] | 8.8 nM |
| N#C[C@H](Cc1ccc(N2C3CCC2CN(C2CCOC2)C3)cc1F)NC(=O)[C@H]1N[C@@H]2CC[C@H]1C2 (some centres unmarked) [Example 329] | 2.5 nM |
| CC(C)N1CCN(C(=O)c2cc(-c3ccc(C[C@@H](C#N)NC(=O)[C@H]4N[C@@H]5CC[C@H]4C5)c(F)c3)cs2)CC1 [Example 227] | 0.9 nM |
| COCCN1CCN(c2ccc(C[C@@H](C#N)NC(=O)[C@H]3N[C@@H]4CC[C@H]3C4)c(F)c2)CC1 [Example 182] | 8.1 nM |
| CN1Cc2ccc(-c3ccc(C[C@@H](C#N)NC(=O)[C@H]4N[C@@H]5CC[C@H]4C5)c(F)c3)cc2C1 [Example 1, (1S,2S,4R)—N-[(1S)-1-cyano-2-[2-fluoro-4-(2-methylisoindolin-5-yl)phenyl]ethyl]-3-azabicyclo[2.2.1]heptane-2-carboxamide] | 2.3 nM |
